{
  "source": "patent US11672870B2",
  "about": "“Transduction” (The University of Nottingham, priority 2013, dated 2023)",
  "key": {"NIH3t3: LSL-eGFP cells": {"tested_on": "NIH3t3: LSL-eGFP cells", "assay": "Cre recombination assay", "format": "cell-based, mouse", "details": "drug pre-treatment and co-treatment (FIG. 17a-d)"}, "NIH3t3 cells": {"tested_on": "NIH3t3 cells", "assay": "Fluorescence delivery assay with membrane depletion, GAG competition, Heparinase, serum or Sodium Chlorate", "format": "cell-based, mouse", "details": "for effect on cell-surface binding and transduction of HETD proteins: free GAG competition (FIG. 3b); for inhibition of PTD-only protein transduction: free GAG competition (FIG. 12)", "description": "For flow cytometry, cells were trypsinized (unless otherwise stated), fixed in 4% (w/v) PFA, resuspended in PBS (pH7.5) and analysed on a MoFlo™ DP (DAKO) Flow Cytometer using a 488 nm […] laser. (50,000 cells; gated on live cells by forward/side scatter). Median fluorescence was used for statistical analyses with background from unlabelled/transduced cells subtracted and values taken as ratios to the experimental control. Data shown are three experiments of triplicate samples. For microscopy, cultures were rinsed twice with PBS and imaged with inverted fluorescence microscope (Nikon Eclipse TS100).\nFor testing multiple cell lines we plated 2=10^5 cells/well (in 12-well plates) onto the surface relevant to the tested cell line, attached cells for 2 hours and transduced with recombinant proteins in cell-type specific growth media. After transduction cells were washed with PBS, trypsinized and fixed in 4% PFA for flow cytometry. For membrane localization, intracellular localisation or both we plated cells as above, but cultures pre-incubated in serum-free media for 1 hour before transduction. Membrane localization to assess cell interaction was achieved by a short transduction of 1 hour in serum-free media. Intracellular localization to assess transduction efficiency was achieved by a short transduction of 1 hour followed by 5 hour incubation in serum-free media only. Cell association (membrane and intracellular levels) were assessed by transducing cells for 6 hours in serum-free medium. For flow cytometry cells were trypsinized, washed and fixed in 4% PFA and for microscopy cells were imaged live after washing in PBS. For trypsin depletion of cell-surface proteins, cells were treated with trypsin/EDTA (Invitrogen) or EDTA-based cell dissociation solution (CDS) (Sigma) for 15 minutes at 37° C., followed by washes with PBS and 1× soybean trypsin inhibitor (10 mg/ml in PBS; Sigma). Cells were then treated with proteins for 1 hour at 37° C. in serum-free medium. For detergent depletion of cell membranes, cells were treated with PBS (pH7.5) containing 0.1% (v/v) Triton-X100 (Tx100) for 10 minutes at 37° C., followed by washes with PBS. Cells were then treated with proteins for 1 hour at 37° C. in serum-free medium. For GAG-treatment cells were pre-treated with GAGs in DMEM without serum before transduction and were included in the transduction media. This included heparin and chondroitin sulphate A, B and C (0-50 μg/ml).\nFor Heparin binding activity we incubated 1 ml of recombinant proteins (20 μg/ml) in DMEM with 50 μl of PBS-washed Heparin-sepharose beads (Sigma) for 1 hour at 37° C. shaking at 100 rpm. Media pre- and post-incubation was compared by fluorometry. For Heparinase treatment, we plated NIH3t3 cells at 2×10^5/well (in 12-well plates) and were pre-incubated in serum-free media for 1 hour with Heparinase III (0-1 U/ml) or Heparin (0-50 μg/ml). Cells were then washed and transduced with mR or P21-mR-8R (20 μg/ml in serum-free media or media with different FCS concentrations) containing Heparinase III or Heparin for 12 hours. FCS was depleted of P21-binding material by affinity chromatography. This was achieved by incubating 50 ml FCS with 2 ml Glutathione-Sepharose resin (GE Healthcare) pre-absorbed with GST-P21 protein expressed in Escherichia coli."}, "NIH 3t3 fibroblast cells": {"tested_on": "NIH 3t3 fibroblast cells", "assay": "Iron oxide nanoparticle uptake (Prussian blue, iron assay)", "format": "cell-based", "protocol": "Confluent cells were split into 12 well plates at 200,000 cells/well and incubated for 24 hours at 37° C. After 24 hours 50 μg of Nanomag-D iron oxide nanoparticles (250 nm) and either 0, 0.01, 0.05, 0.1, 0.5, 2, 1, 5 and 10 μM of cell penetrating peptide were added to the cells with either 10% FCS DMEM or serum free DMEM media and left for 24 hours for iron nanoparticles to be internalised. After incubation cells were washed in PBS to remove excess nanoparticles then harvested for qualitative Prussian blue staining, quantitative colorimetric iron assay or fluorescence activated flow cytometry.\nCells were labelled then fixed in 4% (w/v) PFA for 15-20 minutes at 4° C. A staining solution of 2.5% potassium ferrocyanide in 2.5% HCL was added to cells and incubated for an hour at room temperature. If nanoparticles were present a blue stain appeared which is proportional to the concentration of iron.\nQuantitative Colorimetric Iron Assay Cells were labelled, trypsinised and pelleted then all media removed. 40 μl of 37% HCL was added to the cells and heated at 70° C. until dissolved, then neutralised with 50 μl of NaOH. Those samples containing a high concentration of iron were diluted 1:10 then 40 μl of Quantichrom working reagent was added and the instructions in the Quantichrom iron assay followed."}},
  "data": [
    {"molecule": "N=C(N)NC(=O)c1nc(Cl)c(N)nc1N", "note": "[Amiloride]", "values": [
      {"measurement": "effect on functional delivery of HETD-tagged Cre", "setting": "NIH3t3: LSL-eGFP cells", "result": "dose-dependent reduction"}
    ]},
    {"molecule": "C=C1[C@@H](C)[C@H]2[C@H](Cc3ccccc3)NC(=O)[C@]23[C@H](OC(C)=O)/C=C/[C@@](C)(O)C(=O)[C@@H](C)C/C=C/[C@H]3[C@@H]1O", "note": "[Cytochalasin D]", "values": [
      {"measurement": "effect on functional delivery of HETD-tagged Cre", "setting": "NIH3t3: LSL-eGFP cells", "result": "dose-dependent reduction"}
    ]},
    {"molecule": "[Na+].[O-][Cl+2]([O-])[O-]", "note": "[Sodium Chlorate]", "values": [
      {"measurement": "prevention of HETD-mediated protein delivery", "setting": "NIH3t3 cells; inhibitor of HS synthesis (FIG. 14)", "result": "~7.6", "unit": "fold"}
    ]},
    {"molecule": "C[C@@H]1[C@H](O)[C@@H](C)/C=C/C=C/CC/C=C/C=C/C=C/C=C/C(O[C@H]2O[C@H](C)[C@@H](O)[C@H](N)[C@@H]2O)CC2O[C@](O)(CC(O)C(O)CCC(O)CC(O)CC(O)CC(=O)O[C@H]1C)CC(O)C2C(=O)O", "note": "(stereo partly drawn) [nystatin]", "values": [
      {"measurement": "effect on functional delivery of HETD-tagged Cre", "setting": "NIH3t3: LSL-eGFP cells", "result": "dose-dependent inhibition"}
    ]},
    {"molecule": "Chondroitin sulphate [CS-A]", "values": [
      {"measurement": "effect on cell-surface binding and transduction of HETD proteins", "setting": "NIH3t3 cells", "result": "little effect"}
    ]},
    {"molecule": "Chondroitin sulphate [CS-B]", "values": [
      {"measurement": "effect on cell-surface binding and transduction of HETD proteins", "setting": "NIH3t3 cells", "result": "little effect"},
      {"measurement": "inhibition of PTD-only protein transduction", "setting": "NIH3t3 cells", "result": 2.4, "unit": "fold"}
    ]},
    {"molecule": "Chondroitin sulphate [CS-C]", "values": [
      {"measurement": "effect on cell-surface binding and transduction of HETD proteins", "setting": "NIH3t3 cells", "result": "little effect"},
      {"measurement": "inhibition of PTD-only protein transduction", "setting": "NIH3t3 cells", "result": 4.1, "unit": "fold"}
    ]},
    {"molecule": "Heparin", "values": [
      {"measurement": "effect on P21 binding and nanoparticle uptake", "setting": "NIH 3t3 fibroblast cells; added to media", "result": "inhibitor for the binding"},
      {"measurement": "inhibition of PTD-only protein transduction", "setting": "NIH3t3 cells", "result": 8.1, "unit": "fold"},
      {"measurement": "inhibition of transduction of HETD proteins", "setting": "NIH3t3 cells; free GAG in media, P21-mR-8R 20 μg/ml (FIG. 3)", "result": "99.8±2.1", "unit": "%"}
    ]},
    {"molecule": "Methyl-β-cyclodextrin [methyl-b-cyclodextrin]", "values": [
      {"measurement": "effect on functional delivery of HETD-tagged Cre", "setting": "NIH3t3: LSL-eGFP cells", "result": "dose-dependent inhibition"}
    ]},
    {"molecule": "dextran", "values": [
      {"measurement": "decrease in nanoparticle uptake", "setting": "NIH 3t3 fibroblast cells; increasing concentration added to media, 1 μM P218R", "result": 18, "unit": "%"}
    ]},
    {"molecule": "heparinase III: HS-lyase enzyme (protein, UniProt Q59289 25-659, looked up) Heparin-sulfate lyase: QSSSITRKDFDHINLEYSGLEKVNKAVAAGNYDDAAKALLAYYREKSKAREPDFSNAEKPADIRQPIDKVTREMADKALVHQFQPHKGYGYFDYGKDINWQMWPVKDNEVRWQLHRVKWWQAMALVYHATGDEKYAREWVYQYSDWARKNPLGLSQDNDKFVWRPLEVSDRVQSLPPTFSLFVNSPAFTPAFLMEFLNSYHQQADYLSTHYAEQGNHRLFEAQRNLFAGVSFPEFKDSPRWRQTGISVLNTEIKKQVYADGMQFELSPIYHVAAIDIFLKAYGSAKRVNLEKEFPQSYVQTVENMIMALISISLPDYNTPMFGDSWITDKNFRMAQFASWARVFPANQAIKYFATDGKQGKAPNFLSKALSNAGFYTFRSGWDKNATVMVLKASPPGEFHAQPDNGTFELFIKGRNFTPDAGVFVYSGDEAIMKLRNWYRQTRIHSTLTLDNQNMVITKARQNKWETGNNLDVLTYTNPSYPNLDHQRSVLFINKKYFLVIDRAIGEATGNLGVHWQLKEDSNPVFDKTKNRVYTTYRDGNNLMIQSLNADRTSLNEEEGKVSYVYNKELKRPAFVFEKPKKNAGTQNFVSIVYPYDGQKAPEISIRENKGNDFEKGKLNLTLTINGKQQLVLVP", "values": [
      {"measurement": "inhibition of GET/HETD-mediated transduction", "setting": "NIH3t3 cells; at 1 U/ml, 6 h protocol", "result": "97.2±3.4", "unit": "%"}
    ]}
  ]
}
